Biological target: T1, Human MC1R (Homo sapiens, UniProt Q01726)
T1 construct: endogenous in cells; host or cells: human melanoma cell line HBL
Test: MCR agonist measurement (cAMP measurement), human MC1R agonist activity in human melanoma cell line HBL
Assay type: cell-based
Conditions: HBL cells; for EC50: 37° C. for 30 minutes, intracellular cAMP by fluorescence method; for Human MC1R IA %: Intrinsic Activity, vehicle cAMP = 0%, αMSH at 10^-6 M = 100%
Protocol: (1) Method for Culturing Cells
Human MC1R agonist activity measurement was carried out by using human melanoma cell line HBL. Culture of HBL: F-10 Nutrient Mixture containing 10% FCS and Penicillin-streptomycin was used in the culture.
(2) cAMP Assay and Data Calculation
Each compound solution having each concentration was mixed with cAMP assay buffer (HBSS (Hank's Balanced Salt Solution) containing 10 mM HEPES and 0.1% BSA), and dispensed into 96 well plate. HBL was suspended in cAMP assay buffer containing 0.5 mM IBMX so that the concentrate became 5×10^4/mL, dispensed into the above 96 well plate, then mixed, left to stand at 37° C. for 30 minutes, and then the intracellular […] concentration was measured by fluorescence method using Envision (ex. 320 nm, em. 590 nm and 665 nm).

T1 sequence (Q01726 whole entry): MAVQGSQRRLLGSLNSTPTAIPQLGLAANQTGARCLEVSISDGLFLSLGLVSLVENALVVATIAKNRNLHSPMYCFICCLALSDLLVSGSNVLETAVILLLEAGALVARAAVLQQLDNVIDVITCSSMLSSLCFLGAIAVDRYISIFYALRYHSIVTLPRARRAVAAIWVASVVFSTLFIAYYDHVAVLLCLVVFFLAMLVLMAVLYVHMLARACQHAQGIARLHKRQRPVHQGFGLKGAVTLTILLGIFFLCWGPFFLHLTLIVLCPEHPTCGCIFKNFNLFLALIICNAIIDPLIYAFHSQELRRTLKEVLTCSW

| EC50 [nM] | Human MC1R IA % [%] | SMILES |
| --- | --- | --- |
| 4.4 | 105 | COc1ccc([C@@H]2CN(C(C)(C)C)C[C@@]2(F)C(=O)N2CC[C@@H](c3ccc(C(F)(F)F)cc3N3CCC(C(=O)O)CC3)C2)cc1.Cl.Cl [Example 286a, 1-{2-[(3S)-1-{[(3R,4R)-1-tert-butyl-3-fluoro-4-(4-methoxyphenyl)pyrrolidin-3-yl]carbonyl}pyrrolidin-3-yl]-5-(trifluoromethyl)phenyl}piperidine-4-carboxylic acid dihydrochloride] |
| 30 | 79 | COc1ccc([C@@H]2CN(C(C)(C)CO)C[C@@]2(F)C(=O)N2CCC(c3ccc(C(F)(F)F)cc3N3CCC(C(=O)O)CC3)CC2)cc1 [Example 320] |
| 8.8 | 109 | COC[C@@]1(F)CN(C(=O)[C@]2(F)CN([C@H]3CC[C@H](OC)CC3)C[C@H]2c2ccc(OC)cc2)C[C@@H]1c1ccc(C(F)(F)F)cc1N1CCC(C(=O)O)CC1 [Example 120] |
| 45 | 66 | COc1ccc([C@@H]2CN(C(C)(C)C)C[C@@]2(F)C(=O)N2CCC(c3ccc(C(F)F)cc3N3CCC(C(=O)O)CC3)CC2)cc1 [Example 198] |
| 23 | 67 | CCC(=O)N1CCC(N2C[C@@H](c3ccc(OC)cc3)[C@](F)(C(=O)N3C[C@H](COC)[C@@H](c4ccc(C(F)(F)F)cc4N4CCC(C(=O)O)CC4)C3)C2)CC1 [Example 327] |
| 6.7 | 73 | COC[C@H]1CN(C(=O)[C@]2(F)CN(C3CCCC3)C[C@H]2c2ccc(OC)cc2)C[C@@H]1c1ccc(C(F)(F)F)cc1N1CCC(C(=O)N(C)CC(=O)O)CC1 [Example 269] |
| 4.7 | 117 | COC[C@H]1CN(C(=O)[C@]2(F)CN([C@H]3CC[C@H](OC)CC3)C[C@H]2c2ccc(OC)cc2)C[C@@H]1c1ccc(C(F)(F)F)cc1N1CCC(C(=O)O)CC1 [Example 99] |
| 6.8 | 96 | COC[C@H]1CN(C(=O)[C@]2(F)CN(CC(=O)N3CCCCC3)C[C@H]2c2ccc(OC)cc2)C[C@@H]1c1ccc(C(F)(F)F)cc1N1CCC(C(=O)O)CC1 [Example 306] |
| 60 | 75 | COc1ccc([C@@H]2CN(C(C)(C)C)C[C@@]2(F)C(=O)N2CCC(c3ccc(C(F)(F)F)cc3[C@H]3CC[C@H](C(=O)O)CC3)CC2)cc1 [Example 85] |
| 44 | 74 | CCc1ccc([C@@H]2CN(C(C)(C)C)C[C@@]2(F)C(=O)N2CCC(c3ccc(C(F)(F)F)cc3N3CCC(C(=O)O)CC3)CC2)cc1 [Example 91] |
| 40 | 87 | COc1ccc([C@@H]2CN(C(C)(C)C)C[C@@]2(F)C(=O)N2CCC(c3ccc(Cl)cc3N3CCC(C(=O)O)CC3)CC2)cc1 [Example 195] |
| 7.3 | 105 | COc1ccc([C@@H]2CN(C(C)(C)C)C[C@@]2(F)C(=O)N2CCC(c3ccc(C(F)(F)F)cc3N3CCC(C(=O)N(C)C)CC3)CC2)cc1 [Example 234] |
| 17 | 74 | COC[C@H]1CN(C(=O)[C@]2(F)CN(C3CCCC3)C[C@H]2c2ccc(C)cc2)C[C@@H]1c1ccc(C(F)(F)F)cc1N1CCC(C(=O)O)CC1 [Example 22] |
| 0.98 | 111 | COC[C@@H]1C[C@@H](c2ccc(C(F)(F)F)cc2N2CCC(C(=O)O)CC2)CN1C(=O)[C@]1(F)CN(C2CCCCC2)C[C@H]1c1ccc(OC)cc1 [Example 138] |
| 12 | 72 | COC[C@H]1CN(C(=O)[C@]2(F)CN(C3CCOCC3)C[C@H]2c2ccc(OC)cc2)C[C@@H]1c1ccc(C(F)(F)F)cc1N1CCC(C(=O)O)CC1 [Example 95] |
| 5.9 | 83 | COC[C@@H]1C[C@@H](c2ccc(Cl)cc2N2CCC(C(=O)O)CC2)CN1C(=O)[C@]1(F)CN([C@H]2CC[C@H](OC)CC2)C[C@H]1c1ccc(OC)cc1 [Example 111] |
| 80 | 112 | COc1ccc([C@@H]2CN(C(C)(C)C)C[C@@]2(F)C(=O)N2CCC(c3ccc(C(F)(F)F)cc3C(N)=O)CC2)cc1 [Example 267] |

| EC50 [nM] | Human MC1R IA % [%] | SMILES |
| --- | --- | --- |
| 69 | 83 | COc1ccc([C@@H]2CN(C(C)(C)C)C[C@@]2(F)C(=O)N2CCC(c3ccc(C(F)(F)F)cc3-c3ccc(C(=O)O)cc3)CC2)cc1 [Example 77] |
| 27 | 79 | COc1ccc([C@@H]2CN(C(C)(C)C)C[C@@]2(F)C(=O)N2CCC(c3ccc(C(F)(F)F)cc3N3CCN(C(C)=O)CC3)CC2)cc1.Cl.Cl [Example 282, 1-{4-[2-(1-{[(3R,4R)-1-tert-butyl-3-fluoro-4-(4-methoxyphenyl)pyrrolidin-3-yl]carbonyl}piperidin-4-yl)-5-(trifluoromethyl)phenyl]piperazin-1-yl}ethanone dihydrochloride] |
| 13 | 79 | COc1ccc([C@@H]2CN(C(C)(C)C)C[C@@]2(F)C(=O)N2CCC(c3ccc(C(F)(F)F)cc3OCCCC(=O)NS(C)(=O)=O)CC2)cc1 [Example 273] |
| 59 | 90 | COC[C@H]1CN(C(=O)[C@]2(F)CN(C3CCOCC3)C[C@H]2c2ccc(OC)cc2)C[C@@H]1c1ccc(C(F)(F)F)cc1N1CCC(c2nnn[nH]2)CC1.Cl.Cl [Example 279, [(3R,4R)-3-fluoro-4-(4-methoxyphenyl)-1-(tetrahydro-2H-pyran-4-yl)pyrrolidin-3-yl][(3R,4S)-3-(methoxymethyl)-4-{2-[4-(1H-tetrazol-5-yl)piperidin-1-yl]-4-(trifluoromethyl)phenyl}pyrrolidin-1-yl]methanone dihydrochloride] |
| 0.45 | 96 | COC[C@@H]1C[C@@H](c2ccc(C(F)(F)F)cc2N2CCC(C(=O)O)CC2)CN1C(=O)[C@]1(F)CN(C2CCCC2)C[C@H]1c1ccc(OC)cc1 [Example 134] |
| 3.6 | 105 | CCO[C@H]1CC[C@H](N2C[C@@H](c3ccc(OC)cc3)[C@](OC)(C(=O)N3C[C@H](c4ccc(C(F)(F)F)cc4N4CCC(C(=O)O)CC4)[C@@](F)(COC)C3)C2)CC1 [Example 141] |
| 18 | 91 | COc1ccc([C@@H]2CN(C(C)(C)C)C[C@@]2(F)C(=O)N2CCC(c3ccc(C(F)(F)F)cc3OCCCC(=O)NS(=O)(=O)N(C)C)CC2)cc1.Cl [Example 272, 4-[2-(1-{[(3R,4R)-1-tert-butyl-3-fluoro-4-(4-methoxyphenyl)pyrrolidin-3-yl]carbonyl}piperidin-4-yl)-5-(trifluoromethyl)phenoxy]-N-(dimethylsulfamoyl)butanamide hydrochloride] |
| 67 | 103 | COc1ccc([C@@H]2CN(C(C)(C)C)C[C@@]2(F)C(=O)N2CCC(c3ccc(C(F)(F)F)cc3-c3nc(C(=O)O)co3)CC2)cc1 [Example 79] |
| 57 | 111 | COc1ccc([C@@H]2CN(C(C)(C)C)C[C@@]2(F)C(=O)N2CCC(c3ccc(C(F)(F)F)cc3N3CCC(C(=O)O)CC3)CC2)c(F)c1 [Example 75] |
| 23 | 105 | COc1ccc([C@@H]2CN(CCCS(=O)(=O)N3CCCC3)C[C@@]2(F)C(=O)N2CCC(c3ccc(C(F)(F)F)cc3N3CCC(C(=O)O)CC3)CC2)cc1 [Example 45] |
| 20 | 99 | COc1ccc([C@@H]2CN(C3CCCC3)C[C@@]2(F)C(=O)N2CC(c3ccc(C(F)(F)F)cc3N3CCC(C(=O)O)CC3)C(F)(F)C2)cc1 (single isomer, unassigned) [Example 293] |
| 11 | 85 | COC[C@@H]1C[C@@H](c2ccc(C(F)(F)F)cc2N(C)CCCC(=O)O)CN1C(=O)[C@]1(F)CN([C@H]2CC[C@H](OC)CC2)C[C@H]1c1ccc(OC)cc1 [Example 115] |
| 79 | 124 | COc1ccc([C@@H]2CN(C(C)(C)C)C[C@@]2(F)C(=O)N2CCC(c3ccc(C(F)(F)F)cc3N3CCC(C(=O)N4CCCC4)CC3)CC2)cc1 [Example 235] |
| 15 | 89 | COc1ccc([C@@H]2CN([C@H]3CC[C@H](OC)CC3)C[C@@]2(F)C(=O)N2CCC(c3ccc(C(F)(F)F)cc3N3CCC(C(=O)O)CC3)CC2)cc1 [Example 98] |
| 11 | 76 | COC[C@H]1CN(C(=O)[C@]2(F)CN(C3CCCC3)C[C@H]2c2ccc(OC)cc2)C[C@@H]1c1ccc(OC(F)(F)F)cc1N1CCC(C(=O)O)CC1 [Example 130] |
| 0.89 | 88 | COc1ccc([C@@H]2CN([C@H]3CC[C@H](OC)CC3)C[C@@]2(F)C(=O)N2CC[C@@H](c3ccc(C(F)(F)F)cc3N3CCC(C(=O)O)CC3)C2)cc1 [Example 213] |
| 19 | 53 | COC[C@H]1CN(C(=O)[C@]2(F)CN(c3ccc(OC)nn3)C[C@H]2c2ccc(OC)cc2)C[C@@H]1c1ccc(C(F)(F)F)cc1N1CCC(C(=O)O)CC1 [Example 64] |

| SMILES | EC50 [nM] | Human MC1R IA % [%] |
| --- | --- | --- |
| COc1ccc([C@@H]2CN(C3CCN(C(CF)CF)CC3)C[C@@]2(F)C(=O)N2CC[C@@H](c3ccc(F)cc3N3CCC(C(=O)O)CC3)C2)cc1 [Example 220] | 2.8 | 75 |
| COc1ccc([C@@H]2CN(C(C)(C)C)C[C@@]2(F)C(=O)N2C[C@H](C(=O)O)[C@@H](c3ccc(C(F)(F)F)cc3N3CCC(C(=O)OC(C)(C)C)CC3)C2)cc1 [Example 223, (3R,4S)-4-{2-[4-(tert-butoxycarbonyl)piperidin-1-yl]-4-(trifluoromethyl)phenyl}-1-{[(3R,4R)-1-tert-butyl-3-fluoro-4-(4-methoxyphenyl)pyrrolidin-3-yl]carbonyl}pyrrolidin-3-carboxylic acid] | 90 | 71 |

— US9981960B2, “Pyrrolidine compound and application as melanocortin receptor agonist” (MITSUBISHI TANABE PHARMA CORPORATION, priority 2014, dated 2018)
